The target in the experiment is T1, Firefly luciferase (Fluc) (Photinus pyralis, UniProt P08659).
T1 construct: Fluc amplified from the Super8X TOPFlash reporter plasmid, constitutively expressed under a CMV promoter
Description: Fluc bioluminescence in lysates of compound-treated ΔFZD1–[…] HEK293T cells expressing CMV-driven Fluc (counter assay); Rluc and Nluc unaffected. It counts as cell-based.

T1 sequence (P08659 whole entry): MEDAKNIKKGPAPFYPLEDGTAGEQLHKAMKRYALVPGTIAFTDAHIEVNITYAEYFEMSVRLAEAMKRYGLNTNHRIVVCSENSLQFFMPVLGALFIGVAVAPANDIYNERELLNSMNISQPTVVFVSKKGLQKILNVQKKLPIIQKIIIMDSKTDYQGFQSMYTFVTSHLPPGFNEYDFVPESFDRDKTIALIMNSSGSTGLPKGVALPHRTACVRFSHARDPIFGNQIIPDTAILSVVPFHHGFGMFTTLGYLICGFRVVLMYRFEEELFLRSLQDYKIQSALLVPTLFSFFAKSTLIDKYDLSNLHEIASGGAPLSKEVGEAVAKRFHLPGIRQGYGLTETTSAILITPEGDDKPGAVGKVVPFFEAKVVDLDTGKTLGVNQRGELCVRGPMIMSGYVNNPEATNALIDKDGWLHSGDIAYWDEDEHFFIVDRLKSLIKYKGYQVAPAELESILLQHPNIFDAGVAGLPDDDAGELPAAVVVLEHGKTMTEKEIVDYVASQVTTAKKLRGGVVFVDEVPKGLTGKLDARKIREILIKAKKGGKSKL

With `Cc1ccc(C(=O)Nc2ccc(SCC(=O)Nc3nc(-c4ccccc4)cs3)cc2)c(C)c1` [compound 3, 2,4-Dimethyl-N-(4-((2-oxo-2-((4-phenylthiazol-2-yl)amino)ethyl)thio)phenyl)benzamide], inhibition was half-maximal at 0.025 µM (IC50).

Broadly, the IC50 is the concentration that inhibits the measured activity by half. A higher IC50 goes with weaker potency.

The values are drawn from paper PMC11684006, “A Putative Frizzled 7-Targeting Compound Acts as a Firefly Luciferase Inhibitor” (Journal of Medicinal Chemistry, 2024).
